Data reported in patent US8865623B2, “Herbicidally active cyclic diones and derivatives thereof, processes for their preparation, compositions, and method of controlling weeds” (Syngenta Limited, priority 2009, dated 2014).

Columns and labels:
Type in all cases: in vivo
Lolium perenne (LOLPE) [1] = assay: Post-emergence herbicidal activity, glasshouse pot test; settings: Lolium perenne, 312 h, rate 250 g/ha, evaluated after 13 days, glasshouse, read-out: Post-emergence activity LOLPE (100=total damage to plant; 0=no damage to plant)
Procedure, shortened: (§1)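 Test species are sown in pots of standard soil and sprayed either one day after sowing or after 8 days of cultivation, for pre- and post-emergence respectively. Plants grow in a controlled glasshouse, watered twice daily, and damage is assessed at 13 days, 0 to 100.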

[2] = test system: Echinochloa crus-galli (ECHCG); assay: as above; settings: Echinochloa crus-galli, 312 h, rate 250 g/ha, evaluated after 13 days, glasshouse, read-out: Post-emergence activity ECHCG (100=total damage to plant; 0=no damage to plant)
Procedure, shortened: as §1

[3] = test system: Alopecurus myosuroides (ALOMY); assay: as above; settings: Alopecurus myosuroides, 312 h, rate 250 g/ha, evaluated after 13 days, glasshouse, read-out: Post-emergence activity ALOMY (100=total damage to plant; 0=no damage to plant)
Procedure, shortened: as §1

Avena fatua (AVEFA) [4] = assay: as above; settings: Avena fatua, 312 h, rate 250 g/ha, evaluated after 13 days, glasshouse, read-out: Post-emergence activity AVEFA (100=total damage to plant; 0=no damage to plant)
Procedure, shortened: as §1

Lolium perenne (LOLPE) [5] = assay: Pre-emergence herbicidal activity, glasshouse pot test; settings: Lolium perenne, 312 h; Rate 250 g/ha; pre-emergence spray; evaluated after 13 days; read-out: Pre-emergence activity LOLPE (100=total damage to plant; 0=no damage to plant)
Procedure, shortened: as §1

[6] = test system: Echinochloa crus-galli (ECHCG); assay: as above; settings: Echinochloa crus-galli, 312 h; Rate 250 g/ha; pre-emergence spray; evaluated after 13 days; read-out: Pre-emergence activity ECHCG (100=total damage to plant; 0=no damage to plant)
Procedure, shortened: as §1

[7] = test system: Alopecurus myosuroides (ALOMY); assay: as above; settings: Alopecurus myosuroides, 312 h; Rate 250 g/ha; pre-emergence spray; evaluated after 13 days; read-out: Pre-emergence activity ALOMY (100=total damage to plant; 0=no damage to plant)
Procedure, shortened: as §1

Avena fatua (AVEFA) [8] = assay: as above; settings: Avena fatua, 312 h; Rate 250 g/ha; pre-emergence spray; evaluated after 13 days; read-out: Pre-emergence activity AVEFA (100=total damage to plant; 0=no damage to plant)
Procedure, shortened: as §1

| Structure (SMILES) | pest or weed control at 250 g/ha (Lolium perenne (LOLPE) [1]) | pest or weed control at 250 g/ha [2] | pest or weed control at 250 g/ha [3] | pest or weed control at 250 g/ha (Avena fatua (AVEFA) [4]) | pest or weed control at 250 g/ha (Lolium perenne (LOLPE) [5]) | pest or weed control at 250 g/ha [6] | pest or weed control at 250 g/ha [7] | pest or weed control at 250 g/ha (Avena fatua (AVEFA) [8]) |
| --- | --- | --- | --- | --- | --- | --- | --- | --- |
| CCc1ccc(Oc2nc3ccc(Cl)cc3o2)cc1C1=C(O)C(C)(C)OC(C)(C)C1=O [Example A-188] | 100% | 100% | 100% | 100% | 100% | 90% | 90% | 90% |
| CCc1ccc(Oc2ccc(Br)cc2Cl)cc1C1=C(O)CC2(CCOCC2)CC1=O [Example A-189] | 90% | 100% | 90% | 100% | 60% | 90% | 50% | 40% |
| CCc1ccc(Oc2ccc(Cl)cc2Cl)cc1C1=C(O)CC2(CCOCC2)CC1=O [Example A-190] | 90% | 100% | 80% | 90% | 50% | 80% | 30% | 30% |
| CCc1ccc(Oc2ccc3cc(Cl)ccc3n2)cc1C1=C(O)CC2(CCOCC2)CC1=O [Example A-191] | 100% | 100% | 100% | 100% | 60% | 90% | 40% | 40% |
| CCc1ccc(Oc2c(F)ncc(Cl)c2F)cc1C1=C(O)C(C)(C)OC(C)(C)C1=O [Example A-192] | 10% | 40% | 0% | 10% | 0% | 20% | 0% | 0% |
| CCc1ccc(Oc2nc3c(Cl)cccc3s2)cc1C1=C(O)C(C)(C)OC(C)(C)C1=O [Example A-193] | 100% | 100% | 80% | 10% | 70% | 90% | 30% | 20% |
| CCc1ccc(Oc2ccc([N+](=O)[O-])cc2)cc1C1=C(O)C(C)(C)OC(C)(C)C1=O [Example A-195] | 80% | 100% | 60% | 60% | 40% | 100% | 30% | 0% |
| CCc1ccc(Oc2ccc([N+](=O)[O-])c(C#N)c2)cc1C1=C(O)C(C)(C)OC(C)(C)C1=O [Example A-196] | 10% | 20% | 0% | 0% | 0% | 0% | 0% | 0% |
| CCc1ccc(Oc2ccc([N+](=O)[O-])c(C(F)(F)F)c2)cc1C1=C(O)C(C)(C)OC(C)(C)C1=O [Example A-197] | 60% | 100% | 70% | 70% | 20% | 30% | 0% | 10% |
| CCc1ccc(Oc2ccc([N+](=O)[O-])cc2C(F)(F)F)cc1C1=C(O)C(C)(C)OC(C)(C)C1=O [Example A-198] | 70% | 100% | 70% | 60% | 10% | 60% | 0% | 0% |
| CCc1ccc(Oc2ccc([N+](=O)[O-])c(C)c2)cc1C1=C(O)C(C)(C)OC(C)(C)C1=O [Example A-200] | 70% | 90% | 70% | 10% | 60% | 50% | 20% | 0% |
| CCc1ccc(Oc2ccc([N+](=O)[O-])cc2Cl)cc1C1=C(O)C(C)(C)OC(C)(C)C1=O [Example A-201] | 70% | 100% | 60% | 60% | 30% | 60% | 10% | 0% |
| CCc1ccc(Oc2ccc([N+](=O)[O-])cc2C#N)cc1C1=C(O)C(C)(C)OC(C)(C)C1=O [Example A-202] | 30% | 60% | 10% | 20% | 10% | 60% | 0% | 0% |
| CCc1ccc(Oc2ccc(C(F)(F)F)cc2[N+](=O)[O-])cc1C1=C(O)C(C)(C)OC(C)(C)C1=O [Example A-203] | 90% | 90% | 90% | 100% | 90% | 50% | 20% | 30% |
| CCc1ccc(Oc2c(Cl)cc(C(F)(F)F)cc2Cl)cc1C1=C(O)C(C)(C)OC(C)(C)C1=O [Example A-204] | 40% | 70% | 60% | 50% | 10% | 20% | 0% | 0% |
| CCc1ccc(Oc2c(F)cc(C(F)(F)F)cc2F)cc1C1=C(O)C(C)(C)OC(C)(C)C1=O [Example A-205] | 90% | 100% | 70% | 60% | 60% | 60% | 20% | 10% |
| CCc1ccc(Oc2cc(F)cc(F)c2C#N)cc1C1=C(O)C(C)(C)OC(C)(C)C1=O [Example A-206] | 50% | 70% | 20% | 30% | 10% | 30% | 0% | 0% |
| CCc1ccc(Oc2cc(F)c(C#N)c(F)c2)cc1C1=C(O)C(C)(C)OC(C)(C)C1=O [Example A-207] | 90% | 100% | 80% | 80% | 60% | 70% | 30% | 10% |
| CCc1ccc(Oc2ccc(C(F)(F)F)c(C#N)c2)cc1C1=C(O)C(C)(C)OC(C)(C)C1=O [Example A-210] | 100% | 100% | 90% | 90% | 20% | 60% | 30% | 10% |
| CCc1ccc(Oc2nc3ccc(OC)cc3s2)cc1C1=C(O)C(C)(C)OC(C)(C)C1=O [Example A-214] | 100% | 100% | 100% | 70% | 40% | 90% | 50% | 30% |
| CCc1ccc(Oc2nc3cc4c(cc3s2)OCCO4)cc1C1=C(O)C(C)(C)OC(C)(C)C1=O [Example A-215] | 20% | 40% | 10% | 0% | 0% | 20% | 0% | 0% |
